Measured values reported in US11266662B2, “Ganaxolone for use in prophylaxis and treatment of postpartum depression” (Marinus Pharmaceuticals, Inc., priority 2018, dated 2022).

Test: Phase 2A study (Magnolia) in women with postpartum depression: ganaxolone plasma concentrations / pharmacokinetics
Conditions: female, human, plasma, iv
Method: Approximately 200 women with PPD 18 to 45 years of age are screened to randomize up to 100 subjects across up to 6 cohorts. Approximately 10-30 subjects are randomized into each cohort. Randomized subjects receive the investigational product (IP), ganaxolone or matching placebo in a 1:1 ratio. In Cohorts 1-5 the IP is administered intravenously over 60 hours. In Cohort 6 the dosing is initiated with a 6-hour intravenous (IV) infusion followed by oral dosing for 28 days plus 3-day taper.
Ganaxolone is infused at a rate of 4 mg/hr (16 ml/h of ganaxolone 0.25 mg/ml solution) for 48 hours and then, to minimize any risks for withdrawal or rebound of anxiety and depression symptoms, at a rate of 2 mg/hr for the next 12 hours. The infusion is stopped at 60 hours. Total of 9 subjects are dosed for this cohort.
Ganaxolone is infused at a rate of 8 mg/hr (16 ml/h of ganaxolone 0.5 mg/ml solution) for 48 hours and then at a rate of 4 mg/hr for the next 12 hours. This dose is approximately double the expected plasma exposure as compared to Cohort 1 at steady state (Cohort 2 expected plasma concentration ˜100-120 ng/mL). The infusion is stopped at 60 hours.
Twelve mg bolus of ganaxolone is initially given over 2 minutes followed by ganaxolone infusion at a rate of 12 mg/hr (24 ml/h of ganaxolone 0.5 mg/ml solution) for 48 hours. The rate is then reduced to 6 mg/hr for the next 12 hours, which is done to minimize any risks for withdrawal or rebound of anxiety and depression symptoms. The infusion is stopped at 60 hours.
In this cohort dosing is initiated with ganaxolone infusion at a rate of 20 mg/hr (40 ml/h of ganaxolone 0.5 mg/ml solution or matching placebo) for 6 hours followed by ganaxolone 900 mg (four 225 mg capsules per dose) or matching placebo capsules given orally at dinner time for 28 days followed by a 3-day taper (three, two, and one 225 mg capsule(s) per day, respectively).
This initial infusion is targeted to provide a fast onset of antidepressant activity by delivery of rapid plasma exposures to ganaxolone. Then, at dinner time of Day 1 the subjects take their first oral dose of ganaxolone 900 mg (four 225 mg capsules) or matching placebo (4 capsules). […] In previous studies, ganaxolone has been given up to a daily dose of 2000 mg, and at single doses of 1000 mg.
Six samples are collected for pharmacokinetic analysis in Cohorts 1-5 and 12 samples in Cohort 6. […] Seven samples are collected during the inpatient phase of Cohort 6 (including 6 samples on Day 1) followed by collection of 5 samples during the outpatient phase during the study visits for a total of 12 samples in Cohort 6.

## CC(=O)[C@H]1CC[C@H]2[C@@H]3CC[C@H]4C[C@](C)(O)CC[C@]4(C)[C@H]3CC[C@]12C [ganaxolone, 3α-hydroxy-3β-methyl-5α-pregnan-20-one]
86 ug/kg, AUC24-48, calculated from Table 1C, dose 86 μg/kg/hr (row order of Table 1C)
  AUC: 2.3 µg·h/mL
150 ug/kg, AUC12-24, calculated from Table 1C, dose 150 μg/kg/hr (row order of Table 1C)
  AUC: 1.81 µg·h/mL
150 ug/kg, AUC12-48, calculated from Table 1C, dose 150 μg/kg/hr (row order of Table 1C)
  AUC: 5.82 µg·h/mL
150 ug/kg, AUC24-48, calculated from Table 1C, dose 150 μg/kg/hr (row order of Table 1C)
  AUC: 4.01 µg·h/mL
160 ug/kg, AUC12-24, calculated from Table 1C, dose 160 μg/kg/hr (row order of Table 1C)
  AUC: 1.93 µg·h/mL
160 ug/kg, AUC12-48, calculated from Table 1C, dose 160 μg/kg/hr (row order of Table 1C)
  AUC: 6.21 µg·h/mL
160 ug/kg, AUC24-48, calculated from Table 1C, dose 160 μg/kg/hr (row order of Table 1C)
  AUC: 4.28 µg·h/mL
170 ug/kg, AUC12-24, calculated from Table 1C, dose 170 μg/kg/hr (row order of Table 1C)
  AUC: 2.05 µg·h/mL
170 ug/kg, AUC12-48, calculated from Table 1C, dose 170 μg/kg/hr (row order of Table 1C)
  AUC: 6.6 µg·h/mL
170 ug/kg, AUC24-48, calculated from Table 1C, dose 170 μg/kg/hr (row order of Table 1C)
  AUC: 4.55 µg·h/mL
180 ug/kg, AUC12-24, calculated from Table 1C, dose 180 μg/kg/hr (row order of Table 1C)
  AUC: 2.17 µg·h/mL
180 ug/kg, AUC12-48, calculated from Table 1C, dose 180 μg/kg/hr (row order of Table 1C)
  AUC: 6.98 µg·h/mL
180 ug/kg, AUC24-48, calculated from Table 1C, dose 180 μg/kg/hr (row order of Table 1C)
  AUC: 4.82 µg·h/mL
190 ug/kg, AUC12-24, calculated from Table 1C, dose 190 μg/kg/hr (row order of Table 1C)
  AUC: 2.29 µg·h/mL
190 ug/kg, AUC12-48, calculated from Table 1C, dose 190 μg/kg/hr (row order of Table 1C)
  AUC: 7.37 µg·h/mL
190 ug/kg, AUC24-48, calculated from Table 1C, dose 190 μg/kg/hr (row order of Table 1C)
  AUC: 5.08 µg·h/mL
200 ug/kg, AUC12-24, calculated from Table 1C, dose 200 μg/kg/hr (row order of Table 1C)
  AUC: 2.41 µg·h/mL
200 ug/kg, AUC12-48, calculated from Table 1C, dose 200 μg/kg/hr (row order of Table 1C)
  AUC: 7.76 µg·h/mL
200 ug/kg, AUC24-48, calculated from Table 1C, dose 200 μg/kg/hr (row order of Table 1C)
  AUC: 5.35 µg·h/mL
210 ug/kg, AUC12-24, calculated from Table 1C, dose 210 μg/kg/hr (row order of Table 1C)
  AUC: 2.53 µg·h/mL
210 ug/kg, AUC12-48, calculated from Table 1C, dose 210 μg/kg/hr (row order of Table 1C)
  AUC: 8.15 µg·h/mL
210 ug/kg, AUC24-48, calculated from Table 1C, dose 210 μg/kg/hr (row order of Table 1C)
  AUC: 5.62 µg·h/mL
220 ug/kg, AUC12-24, calculated from Table 1C, dose 220 μg/kg/hr (row order of Table 1C)
  AUC: 2.65 µg·h/mL
